In patent US20070142396A1, “Treatment of pain with 1-[3-[4-(3-chlorophenyl)-1-piperazinyl]propyl]-5-methoxy-3,4-dihydro-2(1H)-quinolone or salt thereof” (Vela Pharmaceuticals, Inc., priority 2005, published 2007):

Test system: rats with L5 spinal nerve ligation (SNL model)
Assay: Spinal nerve ligation (L5) neuropathic pain model, von Frey filaments, dose range (Example 5)
Format: in vivo, rat
Excerpt: The spinal nerve ligation (SNL) model of neuropathic pain was produced in all rats as described by Kim and Chung (Pain, 50, 355-363, 1992). Briefly, under gaseous anesthesia using halothane (3% for induction and 1.5% for maintenance) in oxygen, the left L5 spinal nerve was exposed by removing the paraspinal muscles and the transverse process of the L6 vertebra. The very proximal portion of the L5 spinal nerve was tightly ligated with 6-0 silk suture. The wounds were closed and anesthesia was discontinued. Rats were kept on a heated blanket until they had completely recovered from anesthesia.
Behavioral tests were conducted in a non-blind fashion. The foot withdrawal threshold to mechanical stimuli applied to the paw (mechanical threshold) was measured, as an indicator of mechanical sensitivity of the affected paw. The foot withdrawal threshold was measured using von Frey filaments. It is generally thought that von Frey filaments are more sensitive than electronic von Frey probes for measuring tactile stimulation. The mechanical thresholds were measured by using the “up-and-down” method (Chaplan et al., J. Neurosci. Methods 53(1):55-63, 1994), following the procedures described in previous studies (Park et al., Pain 87(2):171-179, 2000; Xie et al., J. Pain 2(5):270-278, 2001; Baik et al., J. Pain 4:212-221, 2003). In brief, rats were placed in a transparent plastic box on a metal wire mesh floor. To determine the threshold stiffness required for 50% paw withdrawal, a series of eight von Frey filaments with approximately equal logarithmic incremental (0.22) von Frey values (3.65, 3.87, 4.10, 4.31, 4.52, 4.74, 4.92, and 5.16) were used. Von Frey (VF) values are logarithmically related to gram (g) values (VF=log (10,000×g)). The chosen von Frey values are therefore equivalent to 0.45, 0.74, 1.26, 2.04, 3.31, 5.50, 8.32, and 14.45 in gram value, respectively. Starting with filament 4.31, von Frey filaments were applied perpendicularly to the ventral surface of the proximal part of the third or fourth toe for 2-3 seconds. Whenever a positive response to a stimulus occurred (paw withdrawal), the next smaller von Frey hair was applied. Whenever a negative response occurred, the next larger one was applied. The test was continued until the response of six stimuli after the first change in response had been obtained or the test had reached either end of the spectrum of the von Frey set.
The 50% threshold value was then calculated using Dixon's formula (Dixon, Ann. Rev. Phar. Tox. 20:441-462, 1980): 50% threshold=X+kd, where X is the value of the final von Frey hair used (in log units), k is the tabular value for the pattern of positive/negative responses, and d is the mean difference between stimuli in log units (0.22). In the cases where continuous positive or negative responses were observed all the way out to the end of the stimulus spectrum, values of 3.54 or 5.27 were assigned, respectively, by assuming a value of (−/+) 0.5 for k in these cases (Dixon, supra, 1980). Outcome of behavioral data were expressed as von Frey values (maximum range from 3.54 to 5.27) and plotted in a linear scale.
Data were expressed as the mean±standard errors of mean (SEM). Differences in mechanical thresholds at various times after injections were tested using two-way (time and group factors) analysis of variance (ANOVA), followed by the Duncan's post-hoc test for multiple comparisons. Statistical analyses were done using the SAS® software program (SAS Institute Inc, Cary, N.C.). Two-tailed p-values<0.05 were considered to be significant.
This experiment was conducted on 8 rats in a Latin-square design examining a dose response of OPC-14523. Gabapentin was prepared at 10 mg/ml in 0.5% tragacanth and administered at 100 mg/kg p.o. Behavioral tests were conducted in a blind fashion twice (1 day and 1 hour) before as well as 1 and 4 days after the neuropathic surgery. […] These 8 rats were randomly divided into 6 groups of 1-2 rats. […]

COc1cccc2c1CCC(=O)N2CCCN1CCN(c2cccc(Cl)c2)CC1 [OPC-14523, 1-[3-[4-(3-chlorophenyl)-1-piperazinyl]propyl]-5-methoxy-3,4-dihydro-2(1H)-quinolone]
effect on mechanical threshold (10 mg/kg oral): neither vehicle nor OPC-14523 at 10 mg/kg produced significant changes | effect on mechanical threshold (30 mg/kg oral): statistically significant increase | level of response compared with gabapentin 100 mg/kg p.o. (30 mg/kg oral): comparable to that of gabapentin | effect on mechanical threshold (60 mg/kg oral): statistically significant increase | level of response compared with gabapentin 100 mg/kg p.o. (60 mg/kg oral): comparable to that of gabapentin | effect on mechanical threshold (100 mg/kg oral): statistically significant increase | level of mechanical threshold reached (100 mg/kg oral, exceeding the response induced by gabapentin): about the level observed prior to the ligature surgery
